Assay results published in patent US5945436A, “Pyridylmethyl nitriles, amides and thioamides useful as fungicides” (Uniroyal Chemical Company, Inc., priority 1997, dated 1999).

Legend:
Helminthosporium sativum = assay: Barley spot blotch, foliar treatment (HEL SAT); type: in vivo; conditions: Helminthosporium, foliar, 216 h, foliar, 1,000 mg/l, read-out: Percent Reduction of Disease, HEL SAT
In short: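 Six-day-old "Robust" barley, 10 plants per pot, sprayed at 1,000 mg/l (acetone solution emulsified in water with TWEEN 20) or left unsprayed as controls. All plants then inoculated with H. sativum spores, held 24 h at 99% humidity, then 8 days in greenhouse at 21° C. Percent control computed.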

Botrytis cinerea = assay: Fungal growth inhibition, treated disc on agar (BOT CIN); type: cell-based; conditions: Botrytis cinerea, disc dipped in 500 mg/l, 29° C., read-out: Percent Growth Inhibition, BOT CIN
Erysiphe graminis = assay: Powdery mildew in barley, foliar application (ERY GRA); type: in vivo; conditions: Blumeria graminis, foliar, 192 h, foliar, 1,000 mg/l, 8 days after inoculation, read-out: Percent Reduction of Disease, ERY GRA
In short: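 'Robust' barley plants sprayed with acetone/TWEEN 20 aqueous emulsion at 1,000 mg/l, dried, then kept at 21° C in a greenhouse. Inoculated by distributing Erysiphe graminis spores from infected plants. Percent control computed from disease scores vs unsprayed control pots.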

Septoria nodorum = assay: Fungal growth inhibition, treated disc on agar (SEP NOD); type: cell-based; conditions: Parastagonospora nodorum, disc dipped in 500 mg/l, 29° C., read-out: Percent Growth Inhibition, SEP NOD
Pyricularia oryzae = assay: whole plant or invertebrate; type: in vivo; conditions: Pyricularia oryzae, in Hordeum vulgare, foliar, 216 h, read-out: Percent Reduction of Disease, PYR ORY, barley, foliar, 1,000 mg/l
Uromyces phaseoli = assay: Bean rust fungus eradicant test (URO PHA); type: in vivo; conditions: Uromyces phaseoli, 216 h, pinto bean, eradicant spray 2 days after inoculation, 1,000 mg/l; read-out: Percent Reduction of Disease, URO PHA
In short: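 Seven-day-old pinto bean plants (Phaseolus vulgaris, primary leaf) were inoculated with 20,000 spores/ml, held 24 h at 99% humidity and 21° C., then sprayed two days post-inoculation with acetone/TWEEN 20 emulsions at 1,000 mg/l. After nine days in a 21° C. greenhouse, disease was scored as percent reduction versus unsprayed controls.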

Erysiphe cichoracearum = assay: Powdery mildew of cucumber, systemic root uptake (CMS); type: in vivo; conditions: 45 ml of 250 mg/l, 8 days after inoculation
In short: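 Pot soil of barley (BMS) and cucumber (CMS) plants was drenched with 45 ml of a 250 mg/l acetone/Tween 20 aqueous emulsion, with untreated plants as controls. Disease was scored on a rating scale that included intermediate grades.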

Rhizoctonia solani = assay: Fungal growth inhibition, treated disc on agar (RHI SOL); type: cell-based; conditions: Rhizoctonia solani, disc dipped in 500 mg/l, 29° C., read-out: Percent Growth Inhibition, RHI SOL
Excerpt: Filter paper discs, each 11 mm. in diameter, were dipped in each of the test solutions. The discs were allowed to air dry to drive off the acetone solvent. A number of untreated discs were used as controls.
The treated and untreated discs were then placed on agar plates and one of the following fungus species: Septoria nodorum (SEP NOD), Botrytis cinerea (BOT CIN), Fusarium oxysporum (FUS OXY), Pythium ultimum (PYT ULT), Rhizoctonia solani (RHI SOL), Colletotrichum gossypii (COL GOS), and Scierotinia minor (SCL MIN), was added to the center of each disc in the form of a culture plug with the fungus mat in contact with the paper of the test disc. Cercosporidium personatum (CER PER), was added to discs as a spore suspension (20,000 spores/ml) to the disc (two drops of spore suspension per disc), rather than a mycelial culture plug. The plates were then incubated at 29° C. in an oven.
With the exception of the discs containing Cercosporidium personatum, the discs were evaluated by first measuring the radius from the center of the fungus colony on the treated discs and on the untreated discs. Percent growth inhibition of each of the compounds tested was determined as a function of the difference between the radius of the fungus colony on the treated disc versus the radius of the fungus colony on the untreated disc.

Structure (SMILES): N#CC(CCCC(F)(F)F)(CCc1ccc(F)cc1)c1cccnc1 (stereo not drawn) [Compound 78]
- pest or weed control at 1000 µg/mL (Helminthosporium sativum): 83%
- inhibition at 500 µg/mL (Botrytis cinerea): 34%
- pest or weed control at 1000 µg/mL (Erysiphe graminis): 100%
- inhibition at 500 µg/mL (Septoria nodorum): 30%
- pest or weed control at 1000 µg/mL (Pyricularia oryzae): 100%
- pest or weed control at 1000 µg/mL (Uromyces phaseoli): 83%
- Percent Reduction of Disease, CMS (Erysiphe cichoracearum): 92%
- inhibition at 500 µg/mL (Rhizoctonia solani): 0%

Structure (SMILES): Cc1ccc(CCC(C#N)(CCCC(F)(F)F)c2cccnc2)cc1 (stereo not drawn) [Compound 79]
- pest or weed control at 1000 µg/mL (Helminthosporium sativum): 100%
- inhibition at 500 µg/mL (Botrytis cinerea): 0%
- pest or weed control at 1000 µg/mL (Erysiphe graminis): 100%
- inhibition at 500 µg/mL (Septoria nodorum): 30%
- pest or weed control at 1000 µg/mL (Pyricularia oryzae): 11%
- pest or weed control at 1000 µg/mL (Uromyces phaseoli): 0%
- Percent Reduction of Disease, CMS (Erysiphe cichoracearum): 92%
- inhibition at 500 µg/mL (Rhizoctonia solani): 35%

Structure (SMILES): Cc1ccc(CCC(C#N)(CCC(F)(F)F)c2cccnc2)cc1 (stereo not drawn) [Compound 80]
- pest or weed control at 1000 µg/mL (Helminthosporium sativum): 100%
- inhibition at 500 µg/mL (Botrytis cinerea): 9%
- pest or weed control at 1000 µg/mL (Erysiphe graminis): 100%
- inhibition at 500 µg/mL (Septoria nodorum): 0%
- pest or weed control at 1000 µg/mL (Pyricularia oryzae): 78%
- pest or weed control at 1000 µg/mL (Uromyces phaseoli): 83%
- Percent Reduction of Disease, CMS (Erysiphe cichoracearum): 92%
- inhibition at 500 µg/mL (Rhizoctonia solani): 62%
